# Measurements: US10053422B2, “Compounds for the treatment of mTOR pathway related diseases” (Pitney Pharmaceuticals Pty Limited, priority 2012, dated 2018)
# pIC50: −log10 of the molar value. Entries after “also recorded” stand apart in the source; their conditions may differ. Read-outs that look alike come from different tables or passages of the source.
# Legend:
# PET cells (mesothelioma) = experiment: SRB cell proliferation assay, PET; type: cell-based; conditions: for pIC50: PET
# Procedure: (§1) Cell proliferation was assessed using the sulforhodamine B (SRB) assay. Cells seeded in 96-well plate (2,000-3,000 cell/well) were treated with MPL (0, 1, 5, 10, 25, 50 and 100 μmol/L) for 72 h. Cells were then fixed, washed and stained with 100 μl of 0.4% (w/v) SRB dissolved in 1% acetic acid. Unbound dye was removed by five washes with 1% acetic acid before air drying. Bound SRB was solubilized with 100 μl of 10 mM Tris base (pH 10.5) and the absorbance read at 570 nm. Exactly the same procedure was used to assess MPL-SO2. Both agents were dissolved in ethanol and diluted with media to give the final concentrations required for cell culture assays.
# YOU cells (mesothelioma) = experiment: SRB cell proliferation assay, YOU; type: cell-based; conditions: for pIC50: YOU
# Procedure: as §1
# [1] = system: PC-3 prostate cancer cells; experiment: SRB cell proliferation assay, PC-3; type: cell-based
# Procedure: as §1
# OVCAR-3 or A2780 cells = experiment: Cell cycle analysis by flow cytometry; type: cell-based, human
# Procedure: OVCAR-3 (FIG. 3a) or A2780 (FIG. 3b) cells were treated with MPL (0, 5, 10 and 25 μmol/L) for 48 hours. Propodium iodide stained cells were analysed for DNA content using flow cytometric analysis. The results (see table) are shown as a percentage of cells in G1, S and G2/M phases. Each value represents mean±SEM of 2 independent experiments.
# OVCAR-3 or A2780 cells were treated with MPL (0, 5, 10, 25 μM) for 48 h and examined by flow cytometric analysis (FACS) after staining the cells with PI. The Fig. and data present MPL-induced change in cell distribution in various phases of the cell cycle, here shown as percentage of cells in G1, S and G2/M phases. Each value represents mean±SEM of 2 independent determinations.
# The effect of MPL on the cell cycle was determined using standard flow cytometry analysis protocols and procedures. Briefly, 0.7×10^6 […] cells seeded in […] flasks and allowed to adhere overnight were treated with MPL for 24 or 48 h. Cells were collected with trypsinization and pooled with the cells floating in the medium. The cell suspensions were centrifuged, washed with PBS and fixed with methanol. Cells were then washed, resuspended in propodium iodide and ribonuclease A in PBS for 30 min at room temperature and analyzed by flow cytometry (Becton Dickinson FACSort).
# [2] = system: PARP-1 in OVCAR-3 and A2780 cells; experiment: Western blot of PARP and cleaved PARP; type: cell-based, human; conditions: MPL 0, 5, 10, 25 μM; 24, 48 or 72 h
# Procedure: OVCAR-3 and A2780 cells grown under cell culture conditions were incubated with various concentrations of MPL [0, 5, 10, 25 μM] for 24, 48 or 72 hours. Cell lysates were then prepared and analysed by western blotting for the determination of PARP and cleaved PARP.
# Exposure of OVCAR-3 or A2780 cells to MPL (0, 5, 10, 25 μM) for 24, 48 or 72 h causes cleavage of PARP, which leads to cellular disassembly and serves as a marker of dying cells.
# Protein expression in cells was determined using western blot analysis. After treatment with the indicated concentrations of MPL, cell lysates were prepared and probed with antibodies for cdk2, cdk4, cyclin A, cyclin E, PARP-1 (1:1000 dilutions; Cell Signalling Technology), and p53 (1:200 dilutions; Santa Cruz Biotechnology).
# To investigate whether the MPL-induced cell death involves cleavage of PARP, western blot analysis of lysates of MPL-treated cells for PARP-1 and cleaved PARP-1 was carried out. Cleavage of PARP-1 promotes apoptosis by preventing DNA-repair-induced survival.
# [3] = system: mTOR signaling in s.c. grown OVCAR-3 tumors; experiment: Western blot of tumor lysates, mTOR related signaling; type: in vivo, female nude mice
# Procedure: Western blot analysis of tumor lysates prepared from s.c. grown OVCAR-3 tumors in female nude mice. Mice were treated from day 8 post cell inoculation i.p. for 3 weeks with MPL (25, 50 mg/kg suspended in 0.5% HPMC given i.p.) or the vehicle (0.5% HPMC). 24 hours after the last dose, tumors were excised and frozen at −80° C. […] Protein expression of mTOR together with c-Myc, cyclins D1 and E2 and CDKs 2 and 4 were suppressed in tumors excised from MPL treated mice.
# Female nude mice (6 weeks old) were purchased from Biological Resources (Faculty of Medicine, University of New South Wales). An institutional animal ethics approval covered all procedures carried out on mice. Briefly, 2.5×10^6 log-phase growing OVCAR-3 cells were injected s.c. into the left flank of each mouse. Animals were weighed once weekly while their tumor volumes were determined twice weekly. Tumor growth was monitored by caliper measurements of orthogonal diameters, and the estimated tumor volume was calculated based on the formula ½ (Length×Width^2), where width is the shorter of the two orthogonal measurements. Based on institutional ethics approval, mice were euthanized before the tumor volume reached 500 mm^3. Treatment was initiated on day 8 after tumor cell injection when mice were randomized and assigned to treatment or the control group (6 per group). […]
# [4] = mesothelioma (Table 2), read-out: IC50 in suppressing proliferation
# [5] = mesothelioma, 72 h, SRB assay (Table 1), read-out: IC50
# [6] = highly resistant to chemotherapy
smiles,measurement,setting,value
"C[C@](C#N)(COc1cc(C#N)ccc1C(F)(F)F)NC(=O)c1ccc(SC(F)(F)F)cc1 [MPL, N-[(1S)-1-Cyano-2-(5-cyano-2-trifluoromethyl-phenoxy)-1-methyl-ethyl]-4-trifluoromethylsulfanyl-benzamide]",pIC50,PET cells (mesothelioma); [4],4.59
same,pIC50,PET cells (mesothelioma); [5],4.58
same,replication of PET cells,PET cells (mesothelioma); [6],profoundly suppressed
same,pIC50,YOU cells (mesothelioma); [4],4.64
same,pIC50,YOU cells (mesothelioma); [5],4.64
same,replication of YOU cells,YOU cells (mesothelioma); [6],profoundly suppressed
same,pIC50,"[1]; PC-3, prostate cancer (Table 2), read-out: IC50 in suppressing proliferation",4.68
same,pIC50,"[1]; PC-3, prostate cancer, 72 h, SRB assay (Table 1), read-out: IC50",4.67
same,effect on PC-3 cells,"[1]; chemo-resistant, androgen insensitive PC-3",very effective
same,"percentage of cells in the G2-M phase, vehicle treated group versus treated group",OVCAR-3 or A2780 cells; 25 μM MPL,more than three times higher
same,cell cycle progression,OVCAR-3 or A2780 cells; concentration and time-dependent,arrested in the G1 phase
same,cleavage of PARP,[2],PARP was cleaved; also recorded: highly induced cleavage of PARP
same,tumor mTOR signaling (Western blot),"[3]; 25, 50 mg/kg i.p. for 3 weeks, tumors excised 24 hours after last dose",suppression of mTOR signaling
same,tumor expression of cyclin D1,[3]; MPL treated tumor bearing mice,dramatic down-regulation of cyclin D1
